In patent US12208096B2, “Effective treatment of depression in patients having impaired learning and/or memory or certain EEG characteristics with a benzylpiperazine-aminopyridine agent” (Alto Neuroscience, Inc., priority 2022, dated 2025):

What was measured:
[1] = tested on: patients having major depressive disorder; experiment: First Phase 2 clinical trial of NSI-189 in major depressive disorder (220 patients, SPCD design), original and retrospective analysis; assay type: in vivo, human
Protocol: A subsequent Phase 2 study was then performed on 220 patients with major depression (11). […] Treatment in either stage was given for six weeks. This design is termed a Sequential Parallel Clinical Design (SPCD) and is analyzed statistically by combining results in a pre-defined manner for outcomes differences between relevant groups (e.g., drug vs. placebo) in each of the stages individually. There are two depression outcome measures accepted by the FDA for the evaluation of adults. See the June 2018 FDA draft guidance entitled “Major Depressive Disorder: Developing Drugs for Treatment.” These are the Montgomery-Asberg Depression Rating Scale (MADRS), which was the primary outcome in this study, as well as the Hamilton Depression Rating Scale (HDRS) which was a key secondary outcome measure.
The remaining patients continued their treatment for stage 2 of the trial. Treatment in either stage was given for six weeks. Patients were eligible for study participation if they were between the ages of 18-60 years, with current major depressive disorder of at least 8 weeks duration according to the DSM-5, as diagnosed by the Structured Clinical Interview for the DSM-5 clinical trial version (SCID-5-CT) during the screen and remote assessment visits, and if they were scored at least 20 at screen, remote assessment, and baseline visits on the Montgomery-Asberg Depression Rating Scale (MADRS). The phase 2 study collected cognitive task performance data prior to treatment, and then again after both stage 1 and stage 2 of the treatment protocol. The purpose of doing so was to determine whether treatment with this compound results in improvement in cognitive functioning, as measured by a variety of behavioral measures.
Prior to the inventor's retrospective analysis, there was no consideration as to using behavioral measures to predict treatment outcome nor was there any analysis conducted to this effect. There was no consideration of using cognitive performance as a predictor but only as an outcome measure. […] The tasks in this battery included a simple reaction time (RT) task, a choice RT task, a one-back working memory task, and a visual learning task. Moreover, given the conversion to z-score, a composite cognitive task performance score could be computed by averaging the z-scores for each of the four tasks in the battery. Analyses focused on the MADRS primary outcome of the study. Statistical analyses focused on the complete trial (incorporating both stage 1 and stage 2 outcomes), using the SPCD analytic approach reported in the original study and thus aligned could be compared with the original statistical analysis plan. Mixed models repeated measures (MMRM) were used to predict change from baseline (at 2, 4, and 6 weeks) in clinical scores and included covariates for group (i.e., poor versus good cognition as defined by a given measure of interest), time, time x group, time x baseline MADRS and baseline MADRS. These covariates likewise were used in the original study, and thus results here can be compared with the all-comer results reported previously. Statistical significance was thus assessed on the primary outcome (MADRS change from baseline at 6 weeks across the SPCD design). The change in MADRS scores in the all corner (i.e. original sample) analysis is shown in FIG. 1(A) for comparison to subgroups as defined by cognitive task performance.
To examine the effect of baseline cognition on clinical outcomes, individuals were split at the mean of the average z-score across all tasks (thus a cognition composite score). This generates two groupings, which were termed poor cognition (below mean, negative z scores) or good cognition (above mean, positive z scores). The poor cognition group can also be termed to be cognitively impaired. […]

patients with MDD = experiment: Open-label Phase 2 clinical trial of NSI-189 as monotherapy or adjunctive treatment in depression (MADRS); assay type: in vivo, human
Protocol: These patients also underwent a more comprehensive cognitive battery than in the prior Phase 2 study. As above, MMRM analyses were applied on MADRS change from baseline scores in MDD patients. […] In this study, the current episode was determined by the either the prior two years, or the period within the prior two years since the last time at which two continuous months of euthymia occurred, whichever was shorter. Insufficient response to an antidepressant in the current episode was defined as less than a 50% reduction in symptoms (e.g., based on the total score on the MADRS or HDRS).
All analyses used a z=−0.75 cutoff to identify poor cognition patients (with z-scores determined with reference to a separate healthy population) in order to ensure that poor cognition patients are impaired in those tasks.
An overall cognitive performance variable comprised of measures of executive function (digit-symbol substitution task, Wisconsin card sorting task, trail making task, Corsi blocks, verbal fluency), information processing speed (flanker task, choice RT, simple RT) and verbal learning and/or memory was analyzed.
Learning and/or memory was assessed with a word list task, in which patients are given the word lists on five learning trials, and then memory is assessed through recall of those word lists immediately after learning and again after an approximately 20 minute delay (including after inclusion of a new distractor list of words). This computer-implemented task is named VM-REACT (Verbal memory recall computerized test) and is further described in Naparstek et al., J Psychiatr Res., 2019, 114:170-177 (PMID 31096177).
Another way of analyzing the PSD is through the observation that the background trend in the data can be quantified as a measure of background neural activity and has a 1/f relationship (where f is frequency). One way of quantifying this signal is termed the aperiodic exponent, which is estimated as the negative slope for the line of best fit over the 1-50 Hz range of the power spectral density in the log-log space (T. Donoghue, et al., Nat Neurosci, 23(12): 1655-1665 December 2020). Channel-wise correlation of the aperiodic exponent with treatment outcome (as percentage change in MADRS scores from baseline) was examined.

patients with PTSD = experiment: Open-label Phase 2 clinical trial of NSI-189 in PTSD (CAPS-5); assay type: in vivo, human; conditions: 40 mg BID, recall index cutoff z<=-0.5, week 4
Source text: These patients underwent the same cognitive battery as patients with depression. As above, MMRM analyses were applied on the Clinician Administered PTSD Scale for DSM-5 (CAPS-5) change from baseline scores in PTSD patients. This analysis included 84 patients.
The overall sample using MMRMs that included core terms for time, baseline, group (i.e., poor versus good cognition as defined by a given measure of interest), time x group and time by baseline. The analyses shown in FIG. 12 used a z≤−0.5 cutoff on recall index scores in order to identify poor cognition patients (with z-scores determined with reference to a separate healthy population identically as for the depressed patients above). This cutoff ensured that poor cognition patients are impaired in this task.

[2] = tested on: subjects with moderate to severe depression; experiment: Additional clinical trial with NSI-189 (20 subjects, MADRS); assay type: in vivo, human; conditions: 80 mg (40 mg BID)
[3] = tested on: patients having major depressive disorder; conditions: cited from earlier work
[4] = tested on: patients with major depression; conditions: total daily doses of 40 mg, 80 mg or 120 mg; 18 patients on active drug; cited from earlier work
[5] = 80 mg, regardless of how the clinical population was defined
[6] = all patients, 40 mg or 80 mg daily vs placebo, full SPCD analysis or each stage alone

CC(C)CCNc1ncccc1C(=O)N1CCN(Cc2ccccc2)CC1 [NSI-189, (4-benzylpiperazin-1-yl)-[2-(3-methylbutylamino)pyridin-3-yl]methanone]
drug-placebo effect size Cohen's d, change in MADRS scores ([1]; 80 mg arm vs placebo, poor cognition group (cognitive composite score), SPCD analysis Stage 1 and Stage 2, p=0.014): 0.58
change in MADRS scores, either drug arm versus placebo ([1]; good cognition group, 40 mg or 80 mg, p=0.25): no significant differences
change in MADRS scores, 40 mg group versus placebo ([1]; poor cognition group, p=0.39): not significant
Cohen's d, change in MADRS, 80 mg arm versus placebo ([1]; poor cognition group, stage 1, week 2, p=0.045): 0.55
Cohen's d, change in MADRS, 80 mg arm versus placebo ([1]; poor cognition group, stage 1, week 4, p=0.01): 0.7
Cohen's d, change in MADRS, 80 mg arm versus placebo ([1]; poor cognition group, stage 1, week 6, p=0.03): 0.59
change in MADRS scores, 80 mg versus placebo ([1]; poor self-reported cognition, CPFQ score >25): no difference is seen between treatment arms
MADRS outcome, self-reported poor versus good cognition (patients with MDD; 80 mg (40 mg BID), CPFQ>25 vs <=25): no significant differences
MADRS outcome, subjective diminishment of memory recall (CPFQ item) (patients with MDD; 80 mg (40 mg BID), moderate or greater vs minimal or less diminishment): not predictive of outcome
reduction in the MADRS score, poor versus good cognition patients (patients with MDD; 80 mg (40 mg BID), overall cognitive composite cutoff z=-0.75): significantly better improvement in depressive symptoms
Cohen's d, MADRS outcome, poor delayed recall versus good (patients with MDD; 80 mg (40 mg BID), week eight, p=0.004): 0.61
Cohen's d, MADRS outcome, poor immediate recall versus good (patients with MDD; 80 mg (40 mg BID), week eight, p=0.010): 0.56
Cohen's d, MADRS outcome, poor delayed recall versus good (patients with MDD; 80 mg (40 mg BID), week four, p=0.045): 0.40
Cohen's d, MADRS outcome, poor delayed recall versus good (patients with MDD; 80 mg (40 mg BID), week six, p=0.001): 0.67
Cohen's d, MADRS outcome, poor immediate recall versus good (patients with MDD; 80 mg (40 mg BID), week six, p=0.022): 0.48
Cohen's d, MADRS outcome, poor delayed recall versus good (patients with MDD; 80 mg (40 mg BID), week two, p=0.028): 0.43
change in MADRS from baseline, low versus high aperiodic exponent patients (patients with MDD; 80 mg, EEG resting eyes closed, split at the median): significantly better depression outcome
remission rates, poor versus good learning and/or memory patients (patients with MDD; [5]): approximately double
response rates, poor versus good learning and/or memory patients (patients with MDD; [5]): approximately double
response rates on the MADRS (50% or greater reduction) (patients with MDD; poor learning and/or memory patients, 80 mg open label, across definitions of the clinical population): 60-82%
CAPS-5 change from baseline, poor versus good cognition (patients with PTSD): significantly greater reduction in PTSD symptoms
MADRS improvement, poor versus good cognition patients ([2]; poor verbal memory z<-0.5, week 8): trend
MADRS improvement, poor versus good cognition patients ([2]; poor verbal memory z<-0.5, weeks 2, 4, and 6): large and statistically significantly greater improvement
effects on several secondary measures compared to placebo ([3]; 40 mg dose, not corrected for multiple comparisons): nominally significant effects
efficacy on any study measure ([3]; 80 mg daily dose, all patients): did not demonstrate efficacy on any study measure
antidepressant efficacy on the HDRS key secondary measure [3, 6]: failed to demonstrate any evidence of antidepressant efficacy
antidepressant efficacy on the MADRS primary outcome measure [3, 6]: failed to demonstrate any evidence of antidepressant efficacy
all-comer drug placebo difference, Cohen's d ([3]; all-comer population, prior Phase 2 study): ~0.2
antidepressant efficacy [4]: promising evidence for potential antidepressant efficacy
